From patent US12291522B2, “Galectin-3 inhibitors” (BRISTOL-MYERS SQUIBB COMPANY, priority 2020, dated 2025)
pIC50: −log10 of the molar value. Like-named read-outs stand apart in the source and are kept apart here.

How the values were obtained:
[1] = biological target: His-tagged recombinant human Gal-3 (hGal-3) (Homo sapiens, UniProt P17931); assay: Gal-3 HTRF assay (His-tagged hGal-3 / B-ASF); type: binding; details: 15 nM hGal-3, 15 nM B-ASF
Description: ASSAY BUFFER Composition: 25 mM HEPES, 100 mM NaCl, 0.005% Tween 20, 0.05% BSA prepared in sterile water (all reagents from Sigma).
• Positive Control: 100% DMSO (1 μL)+His-tagged hGal-3 (20 μL)+B-ASF (20 μL)+Anti-His Terbium Antibody (5 μL)+Strep d2 Antibody (5 μL). • Negative Control: 100% DMSO (1 μL)+His-tagged hGal-3 (20 μL)+Anti His Terbium Antibody (5 μL)+Strep d2 Aantibody (5 μL). Stocks Preparation:
PROTOCOL: The Gal-3 assays were performed in 384 white Opti plates in three replicates at room temperature with gentle shaking at 250-300 rpmFrom the original stocks, […] working stock concentrations of His-tagged recombinant human Gal-3 (hGal-3) and that of B-ASF were prepared. From the working stock, 20 μL of hGal-3 (15 nM) and 20 μL B-ASF (15 nM) were added to the plates. In Negative Control, only hGal-3 was added. A concentration range of 50× working stocks were prepared for the compounds in 100% DMSO. Aliquots of luL of the compounds were added to the wells and pre-incubated with 20 μL hGal-3 per well for 30 minutes Then 20 μL B-ASF wereadded and incubated for another 1 hour. To detect the signal, 5 μL (final conc. of 1.0 nM) terbium labelled Anti-His antibody was added and incubated for 30 min followed by adding 5 μL (final conc. of 20 nM) Streptavidin d2 and incubation for another 1 hour. The assay signal was detected using HTRF screen protocol (Excitation wavelength=340 nm, emission wavelength=615 nm/665 nm) on Envision 2104 Multilabel Reader. Data analysed using Toolset and Curve Master. Results are reported in the experimental section (IC50 in μM).

[2] = biological target: T1, hCRBN (NanoLuc-CRBN fusion construct in HEK-293 cells) (Homo sapiens, UniProt Q96SW2); assay: CRBN BRET Target Engagement; type: cell-based; details: NanoLuc-CRBN transfected HEK-293 cells, BRET with CRBN Probe
T1 construct: expressed in transfected cells; host or cells: HEK-293
T1 sequence (Q96SW2 whole entry, the tested form may be a part): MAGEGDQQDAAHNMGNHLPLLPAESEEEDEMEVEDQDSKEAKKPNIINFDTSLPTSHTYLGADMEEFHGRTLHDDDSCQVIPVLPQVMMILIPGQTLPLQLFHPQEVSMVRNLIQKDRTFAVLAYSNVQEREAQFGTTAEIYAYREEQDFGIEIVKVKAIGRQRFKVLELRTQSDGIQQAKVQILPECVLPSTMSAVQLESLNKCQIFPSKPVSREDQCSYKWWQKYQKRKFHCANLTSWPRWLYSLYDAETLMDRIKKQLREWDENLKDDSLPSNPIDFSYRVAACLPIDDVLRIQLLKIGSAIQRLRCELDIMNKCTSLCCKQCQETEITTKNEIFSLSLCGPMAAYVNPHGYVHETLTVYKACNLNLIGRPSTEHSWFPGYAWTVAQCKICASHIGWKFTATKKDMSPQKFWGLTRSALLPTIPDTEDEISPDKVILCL
Description: CRBN BRET Target Engagement (hCRBN IC50 (μM))
NanoLuc-CRBN fusion construct was transfected in HEK-293 cells using FuGENE HD (Promega) according to the manufacturer's protocol. In brief, Nluc-CRBN was diluted into Transfection Carrier DNA (Promega) 1:10 (mass/mass), to which FuGENE HD was 1:3 (μg DNA:μL FuGENE HD). One part (vol) of DNA:FuGENE HD complexes were combined with 20 parts (vol) of HEK-293 cells suspended at a density of […]. Cells were incubated for ˜20 hr at 37° C./5% CO2. Following transfection, cells were washed and resuspended at 200,000 cells/mL in OptiMEM without phenol red (Gibco).
For BRET measurements, cells were seeded in a 384-well nonbinding surface plate (Corning) plate for a final count of 10,000 cells/well. Compounds were dissolved at 10 mM in dimethylsulfoxide (DMSO) and evaluated at eleven concentrations using a high concentration of […]. CRBN Probe was used for equilibrium measurements, employing a final concentration of approximately EC50-80. For live-cell measurements, 20 nM of CRBN Probe was added. For the live-cell assay conditions, the plates were incubated for 2 hours at 37° C./5% CO2. NanoBRET NanoGlo Substrate and Extracellular Nanoluc Inhibitor (Promega) were added according to manufacturer's guidelines. For lytic cell measurements, digitonin was added to the cells to a final concentration of 50 μg/mL and 20 nM of CRBN Probe was added. To measure NanoBRET in permeabilized cells, extracellular Nluc inhibitor was omitted during the detection step. For all BRET experiments, the Envision 2015 (Perkin Elmer) equipped with a BRET2 Enh mirror, BRET 647 nM/75 nM Bandwidth and BC703 460 nM/80 nM Bandwidth filters was used for readouts. Each read was integrated for 0.5 s.
To determine compound potency (IC50), BRET ratios for each dilution series was first normalized to a % Inhibition value via Equation 1, where “S” represents Sample BRET, “B” represents Background BRET, and “T” represents Total BRET. In this equation, the background control (B) consists of NanoLuc-CRBN expressing cells and no CRBN Probe. The total BRET Ratio (T) consists of NanoLuc-CRBN expressing cells, CRBN Probe, and an amount of DMSO at a concentration equivalent to that added when testing compounds.
Following normalization, the percent inhibition values are plotted as a function of compound concentration and fit to Equation 2. […]

[3] = biological target: T2, Gal3 (Human Galectin-3) in THP-1 cells (Homo sapiens, UniProt P17931); assay: ELISA Gal3 Degradation Assay in THP-1 Cells; type: cell-based; details: 48 hours, culture media Gal3 by ELISA
T2 construct: host or cells: THP-1
T2 sequence (P17931 whole entry): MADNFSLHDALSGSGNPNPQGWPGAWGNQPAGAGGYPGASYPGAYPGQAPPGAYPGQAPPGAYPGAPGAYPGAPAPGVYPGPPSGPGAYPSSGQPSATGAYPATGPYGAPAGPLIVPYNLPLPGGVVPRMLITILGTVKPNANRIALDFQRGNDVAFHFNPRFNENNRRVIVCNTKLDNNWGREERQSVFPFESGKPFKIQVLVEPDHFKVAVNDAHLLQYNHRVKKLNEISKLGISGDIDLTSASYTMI
Description: [formula] ELISA Gal3 Degradation Assay in THP-1 Cells
THP-1 cells (ATCC, Cat #TIB-202), a human monocyte cell line derived from leukemia were plated at 2E6 cells/mL in 200 uL/well of RPMI 1640 (ThermoFisher, Cat #11835) in 96-well plates. Cells were treated with DMSO as a control and various concentrations of compounds for 48 hours. After the treatment, the culture media were collected. The PBS washed cell pellets were lysed in Lysis Buffer (Cell Signaling, Cat #9803) supplemented with 1XProtease Inhibitor Cocktail (Cell Signaling, Cat #5872). Gal3 levels in culture media and cell lysates were quantified by ELISA assays (Human Galectin-3 DuoSet ELISA kit, R&D Systems, Cat #DY1154) according to manufacturer's instructions. The cell culture media were also used for the assessment of cellular toxicity (LDH Assay kit, R&D Systems, DY994). The IC50 (degradation concentration at 50%) values were calculated based on the cellular Gal3 protein levels using DMSO as the control.

[4] = test 1, read-out: Supernatant (IC50) test 1
[5] = test 2, read-out: Supernatant (IC50) test 2

Chain of His-tagged recombinant human Gal-3 (hGal-3) (P17931 whole entry): as above

SMILES	pIC50 [1]	pIC50 [2]	pIC50 [3, 4]	pIC50 [3, 5]
Cc1nc([C@@H]2O[C@H](CO)[C@H](O)[C@H](n3cc(-c4cc(F)c(Cl)c(F)c4)nn3)[C@H]2OCC(=O)NCCOCC(=O)Nc2ccc3c(c2)CN(C2CCC(=O)NC2=O)C3=O)n(-c2cc(Cl)ccc2C(F)(F)F)n1 (stereo partly drawn) [Example 1, 2-(((2S,3R,4S,5R,6R)-2-(1-(5-Chloro-2-(trifluoromethyl)phenyl)-3-methyl-1H-1,2,4-triazol-5-yl)-4-(4-(4-chloro-3,5-difluorophenyl)-1H-1,2,3-triazol-1-yl)-5-hydroxy-6-(hydroxymethyl)tetrahydro-2H-pyran-3-yl)oxy)-N-(2-(2-((2-(2,6-dioxopiperidin-3-yl)-1-oxoisoindolin-5-yl)amino)-2-oxoethoxy)ethyl)acetamide]	7.09	6.11		
Cc1nc([C@@H]2O[C@H](CO)[C@H](O)[C@H](n3cc(-c4cc(F)c(Cl)c(F)c4)nn3)[C@H]2OCC(=O)NCc2ccc(C(=O)Nc3ccc4c(c3)CN(C3CCC(=O)NC3=O)C4=O)cc2)n(-c2cc(Cl)ccc2C(F)(F)F)n1 (stereo partly drawn) [Example 2, 4-((2-(((2S,3R,4S,5R,6R)-2-(1-(5-Chloro-2-(trifluoromethyl)phenyl)-3-methyl-1H-1,2,4-triazol-5-yl)-4-(4-(4-chloro-3,5-difluorophenyl)-1H-1,2,3-triazol-1-yl)-5-hydroxy-6-(hydroxymethyl)tetrahydro-2H-pyran-3-yl)oxy)acetamido)methyl)-N-(2-(2,6-dioxopiperidin-3-yl)-1-oxoisoindolin-5-yl)benzamide]	6.96	6.57		
Cc1nc([C@@H]2O[C@H](CO)[C@H](O)[C@H](n3cc(-c4cc(F)c(Cl)c(F)c4)nn3)[C@H]2OCC(=O)N2CC(COc3ccc(C(=O)Nc4ccc5c(c4)CN(C4CCC(=O)NC4=O)C5=O)cc3)C2)n(-c2cc(Cl)ccc2C(F)(F)F)n1 (stereo partly drawn) [Example 7, 4-((1-(2-(((2S,3R,4S,5R,6R)-2-(1-(5-Chloro-2-(trifluoromethyl)phenyl)-3-methyl-1H-1,2,4-triazol-5-yl)-4-(4-(4-chloro-3,5-difluorophenyl)-1H-1,2,3-triazol-1-yl)-5-hydroxy-6-(hydroxymethyl)tetrahydro-2H-pyran-3-yl)oxy)acetyl)azetidin-3-yl)methoxy)-N-(2-(2,6-dioxopiperidin-3-yl)-1-oxoisoindolin-5-yl)benzamide]	7.25	6.22		
Cc1nc([C@@H]2O[C@H](CO)[C@H](O)[C@H](n3cc(-c4cc(F)c(Cl)c(F)c4)nn3)[C@H]2OCC(=O)N2CC(COc3ccc(C(=O)Nc4ccc5c(c4)CN(C4CCC(=O)N(C)C4=O)C5=O)cc3)C2)n(-c2cc(Cl)ccc2C(F)(F)F)n1 (stereo partly drawn) [Example 9, 4-((1-(2-(((2S,3R,4S,5R,6R)-2-(1-(5-Chloro-2-(trifluoromethyl)phenyl)-3-methyl-1H-1,2,4-triazol-5-yl)-4-(4-(4-chloro-3,5-difluorophenyl)-1H-1,2,3-triazol-1-yl)-5-hydroxy-6-(hydroxymethyl)tetrahydro-2H-pyran-3-yl)oxy)acetyl)azetidin-3-yl)methoxy)-N-(2-(1-methyl-2,6-dioxopiperidin-3-yl)-1-oxoisoindolin-5-yl)benzamide]	7.07	5.05		
Cc1nc([C@@H]2O[C@H](CO)[C@H](O)[C@H](n3cc(-c4cc(F)c(Cl)c(F)c4)nn3)[C@H]2OCC(=O)NCCOCCOCCNC(=O)COc2cccc3c2C(=O)N(C2CCC(=O)NC2=O)C3=O)n(-c2cc(Cl)ccc2C(F)(F)F)n1 (some centres unmarked) [Example 12]	7.70	6.28		
Cc1nc([C@@H]2O[C@H](CO)[C@H](O)[C@H](n3cc(-c4cc(F)c(Cl)c(F)c4)nn3)[C@H]2OCC(=O)NCCOCCOCCOCCNC(=O)c2ccc3c(c2)C(=O)N(C2CCC(=O)NC2=O)C3=O)n(-c2cc(Cl)ccc2C(F)(F)F)n1 (some centres unmarked) [Example 13]	7.18	6.09		
Cc1nc([C@@H]2O[C@H](CO)[C@H](O)[C@H](n3cc(-c4cc(F)c(Cl)c(F)c4)nn3)[C@H]2OCC(=O)NCCOCCOCCNC(=O)c2ccc3c(c2)C(=O)N(C2CCC(=O)NC2=O)C3=O)n(-c2cc(Cl)ccc2C(F)(F)F)n1 (some centres unmarked) [Example 14]	7.60	5.82		
Cc1nc([C@@H]2O[C@H](CO)[C@H](O)[C@H](n3cc(-c4cc(F)c(Cl)c(F)c4)nn3)[C@H]2OCC(=O)N[C@H]2C[C@H](Oc3ccc(C(=O)Nc4ccc5c(c4)CN(C4CCC(=O)NC4=O)C5=O)cc3)C2)n(-c2cc(Cl)ccc2C(F)(F)F)n1 (some centres unmarked) [Example 15]	6.38	6.42		
Cc1nc([C@@H]2O[C@H](CO)[C@H](O)[C@H](n3cc(-c4cc(F)c(Cl)c(F)c4)nn3)[C@H]2OCC(=O)NCCOCCOCCNC(=O)c2ccc3c(c2)C(=O)N(C2CCC(=O)N(C)C2=O)C3=O)n(-c2cc(Cl)ccc2C(F)(F)F)n1 (some centres unmarked) [Example 16]	7.16	< 4.30		
Cc1nc([C@@H]2O[C@H](CO)[C@H](O)[C@H](n3cc(-c4cc(F)c(Cl)c(F)c4)nn3)[C@H]2OCC(=O)N[C@H]2C[C@H](Oc3ccc(C(=O)Nc4ccc5c(c4)CN(C4CCC(=O)N(C)C4=O)C5=O)cc3)C2)n(-c2cc(Cl)ccc2C(F)(F)F)n1 (some centres unmarked) [Example 17]	6.85	< 4.30		
Cc1nc([C@@H]2O[C@H](CO)[C@H](O)[C@H](n3cc(-c4cc(F)c(Cl)c(F)c4)nn3)[C@H]2OCC(=O)NCCOCC(=O)N[C@H](C(=O)N2C[C@H](O)C[C@H]2C(=O)NCc2ccc(-c3scnc3C)cc2)C(C)(C)C)n(-c2cc(Cl)ccc2C(F)(F)F)n1 [Example 20]	7.30		7.29	7.38
Cc1nc([C@@H]2O[C@H](CO)[C@H](O)[C@H](n3cc(-c4cc(F)c(Cl)c(F)c4)nn3)[C@H]2OCC(=O)NCCOCC(=O)NCc2ccc(S(=O)(=O)Nc3ccc(C)c4c(C#N)c[nH]c34)cc2)n(-c2cc(Cl)ccc2C(F)(F)F)n1 [Example 22]	6.53		5.47	5.48
Cc1nc([C@@H]2O[C@H](CO)[C@H](O)[C@H](n3cc(-c4cc(F)c(Cl)c(F)c4)nn3)[C@H]2OCC(=O)N[C@H]2C[C@@H](Oc3ccc(C(=O)N[C@H](C(=O)N4C[C@H](O)C[C@H]4C(=O)NCc4ccc(-c5scnc5C)cc4)C(C)(C)C)nc3)C2)n(-c2cc(Cl)ccc2C(F)(F)F)n1 [Example 33]	6.00		< 4.52	< 4.52
